In patent US20260042802A1, “POLYPEPTIDE AND USE THEREOF” (priority 2024, published 2026):
Where two headings read alike, the source gives them in different places. Where a SMILES comes first, the peptide text is derived from it. Bridges are numbered along the chain shown (N, C = ends).

How the values were obtained:
Type in all cases: cell-based
Nav1.6 = target: T1, Nav1.6 (Homo sapiens, UniProt Q9UQD0); assay: Whole-cell patch clamp on Nav1.6 overexpressing HEK293 cells; conditions: 300 nM; −90 mV to +40 mV, 30 ms; n=5
T1 construct: expressed in transfected cells; host or cells: HEK293
Procedure: (§1) The effect of the polypeptide PPN-01 provided in Example 1 on voltage gated sodium channels is studied using the glass microelectrodes prepared as described above in Example 2 and employing the whole-cell membrane clamp techniques. The specific operations are as follows:
(§2) 1. Firstly, internal electrode solution is placed on ice to defrost; after defrosting, an appropriate amount of internal electrode solution is drawn up with a 1 ml syringe; and after a homemade filler is applied to the tip end of the syringe, the air in the tube is emptied to fill the entire filler with internal electrode solution. Secondly, internal electrode solution in the filler is poured into the glass microelectrode from a rear part thereof by using the rear part perfusion method; internal electrode solution is slowly injected into the glass microelectrode; and the amount of perfusion is generally ⅓ to ½ of a length of the glass microelectrode (it is necessary to ensure that the silver wire of the electrode may fully contact internal electrode solution, but also to avoid electrode contamination resulting from too much internal electrode solution). […]

Nav1.4 = target: T2, Nav1.4 (Homo sapiens, UniProt P35499); assay: Whole-cell patch clamp on Nav1.4 overexpressing HEK293 cells; conditions: 300 nM; −90 mV to +40 mV, 30 ms; n=5
T2 construct: expressed in transfected cells; host or cells: HEK293
T2 sequence (P35499 whole entry): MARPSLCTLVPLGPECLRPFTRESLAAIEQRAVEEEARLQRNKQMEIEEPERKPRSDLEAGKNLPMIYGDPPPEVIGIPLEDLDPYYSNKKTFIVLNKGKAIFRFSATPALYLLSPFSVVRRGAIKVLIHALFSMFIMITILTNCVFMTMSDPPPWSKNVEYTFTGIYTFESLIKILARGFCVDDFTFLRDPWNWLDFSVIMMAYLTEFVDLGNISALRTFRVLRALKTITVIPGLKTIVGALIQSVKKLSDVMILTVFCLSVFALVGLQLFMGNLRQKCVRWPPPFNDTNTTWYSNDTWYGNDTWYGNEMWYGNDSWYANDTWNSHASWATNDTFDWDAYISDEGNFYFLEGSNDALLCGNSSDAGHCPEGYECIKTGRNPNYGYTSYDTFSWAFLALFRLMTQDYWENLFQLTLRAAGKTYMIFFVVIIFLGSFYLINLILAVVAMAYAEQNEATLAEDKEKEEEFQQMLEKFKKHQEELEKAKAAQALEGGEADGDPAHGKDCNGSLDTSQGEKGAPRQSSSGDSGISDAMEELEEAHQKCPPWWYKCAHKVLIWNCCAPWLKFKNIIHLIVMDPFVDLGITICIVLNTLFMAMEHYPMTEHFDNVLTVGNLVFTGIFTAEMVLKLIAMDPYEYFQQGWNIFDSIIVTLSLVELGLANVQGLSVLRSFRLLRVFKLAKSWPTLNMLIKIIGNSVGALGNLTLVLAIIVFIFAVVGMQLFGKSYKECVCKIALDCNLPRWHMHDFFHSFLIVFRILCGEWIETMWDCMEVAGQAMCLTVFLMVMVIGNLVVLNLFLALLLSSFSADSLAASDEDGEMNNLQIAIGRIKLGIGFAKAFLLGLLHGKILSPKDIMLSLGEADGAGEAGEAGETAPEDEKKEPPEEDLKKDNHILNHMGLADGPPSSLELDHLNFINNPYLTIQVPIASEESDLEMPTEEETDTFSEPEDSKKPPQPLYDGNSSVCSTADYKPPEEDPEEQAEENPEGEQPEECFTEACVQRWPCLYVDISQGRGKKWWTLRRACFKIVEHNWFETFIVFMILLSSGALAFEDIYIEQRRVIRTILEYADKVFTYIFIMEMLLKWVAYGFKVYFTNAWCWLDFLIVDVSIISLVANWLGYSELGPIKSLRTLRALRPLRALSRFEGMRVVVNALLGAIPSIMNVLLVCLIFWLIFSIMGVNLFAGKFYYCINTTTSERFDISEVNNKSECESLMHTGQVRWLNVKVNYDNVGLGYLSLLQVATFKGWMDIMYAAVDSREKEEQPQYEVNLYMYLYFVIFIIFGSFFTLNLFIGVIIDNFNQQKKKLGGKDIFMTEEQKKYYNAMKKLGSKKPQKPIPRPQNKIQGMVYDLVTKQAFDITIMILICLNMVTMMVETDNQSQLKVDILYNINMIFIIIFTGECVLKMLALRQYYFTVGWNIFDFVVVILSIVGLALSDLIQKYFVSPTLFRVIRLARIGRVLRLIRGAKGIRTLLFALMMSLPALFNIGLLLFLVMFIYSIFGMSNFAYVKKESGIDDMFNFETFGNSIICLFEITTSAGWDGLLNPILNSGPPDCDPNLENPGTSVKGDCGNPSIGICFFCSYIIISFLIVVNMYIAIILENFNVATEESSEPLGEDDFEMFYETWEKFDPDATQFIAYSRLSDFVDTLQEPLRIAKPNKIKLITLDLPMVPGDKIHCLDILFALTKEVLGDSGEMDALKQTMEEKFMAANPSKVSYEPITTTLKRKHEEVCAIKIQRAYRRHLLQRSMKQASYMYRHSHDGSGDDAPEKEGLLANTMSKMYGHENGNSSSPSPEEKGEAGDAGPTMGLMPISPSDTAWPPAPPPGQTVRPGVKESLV
Procedure: as §1, §2

Nav1.7 channels = target: T3, Nav1.7 channels (Homo sapiens, UniProt Q15858); assay: Whole-cell patch clamp on Nav1.7 overexpressing HEK293 cells; conditions: for inhibition at 0.3 µM: HEK293, 300 nM, n=6, read-out: current inhibition
T3 construct: expressed in transfected cells; host or cells: HEK293
T3 sequence (Q15858 whole entry): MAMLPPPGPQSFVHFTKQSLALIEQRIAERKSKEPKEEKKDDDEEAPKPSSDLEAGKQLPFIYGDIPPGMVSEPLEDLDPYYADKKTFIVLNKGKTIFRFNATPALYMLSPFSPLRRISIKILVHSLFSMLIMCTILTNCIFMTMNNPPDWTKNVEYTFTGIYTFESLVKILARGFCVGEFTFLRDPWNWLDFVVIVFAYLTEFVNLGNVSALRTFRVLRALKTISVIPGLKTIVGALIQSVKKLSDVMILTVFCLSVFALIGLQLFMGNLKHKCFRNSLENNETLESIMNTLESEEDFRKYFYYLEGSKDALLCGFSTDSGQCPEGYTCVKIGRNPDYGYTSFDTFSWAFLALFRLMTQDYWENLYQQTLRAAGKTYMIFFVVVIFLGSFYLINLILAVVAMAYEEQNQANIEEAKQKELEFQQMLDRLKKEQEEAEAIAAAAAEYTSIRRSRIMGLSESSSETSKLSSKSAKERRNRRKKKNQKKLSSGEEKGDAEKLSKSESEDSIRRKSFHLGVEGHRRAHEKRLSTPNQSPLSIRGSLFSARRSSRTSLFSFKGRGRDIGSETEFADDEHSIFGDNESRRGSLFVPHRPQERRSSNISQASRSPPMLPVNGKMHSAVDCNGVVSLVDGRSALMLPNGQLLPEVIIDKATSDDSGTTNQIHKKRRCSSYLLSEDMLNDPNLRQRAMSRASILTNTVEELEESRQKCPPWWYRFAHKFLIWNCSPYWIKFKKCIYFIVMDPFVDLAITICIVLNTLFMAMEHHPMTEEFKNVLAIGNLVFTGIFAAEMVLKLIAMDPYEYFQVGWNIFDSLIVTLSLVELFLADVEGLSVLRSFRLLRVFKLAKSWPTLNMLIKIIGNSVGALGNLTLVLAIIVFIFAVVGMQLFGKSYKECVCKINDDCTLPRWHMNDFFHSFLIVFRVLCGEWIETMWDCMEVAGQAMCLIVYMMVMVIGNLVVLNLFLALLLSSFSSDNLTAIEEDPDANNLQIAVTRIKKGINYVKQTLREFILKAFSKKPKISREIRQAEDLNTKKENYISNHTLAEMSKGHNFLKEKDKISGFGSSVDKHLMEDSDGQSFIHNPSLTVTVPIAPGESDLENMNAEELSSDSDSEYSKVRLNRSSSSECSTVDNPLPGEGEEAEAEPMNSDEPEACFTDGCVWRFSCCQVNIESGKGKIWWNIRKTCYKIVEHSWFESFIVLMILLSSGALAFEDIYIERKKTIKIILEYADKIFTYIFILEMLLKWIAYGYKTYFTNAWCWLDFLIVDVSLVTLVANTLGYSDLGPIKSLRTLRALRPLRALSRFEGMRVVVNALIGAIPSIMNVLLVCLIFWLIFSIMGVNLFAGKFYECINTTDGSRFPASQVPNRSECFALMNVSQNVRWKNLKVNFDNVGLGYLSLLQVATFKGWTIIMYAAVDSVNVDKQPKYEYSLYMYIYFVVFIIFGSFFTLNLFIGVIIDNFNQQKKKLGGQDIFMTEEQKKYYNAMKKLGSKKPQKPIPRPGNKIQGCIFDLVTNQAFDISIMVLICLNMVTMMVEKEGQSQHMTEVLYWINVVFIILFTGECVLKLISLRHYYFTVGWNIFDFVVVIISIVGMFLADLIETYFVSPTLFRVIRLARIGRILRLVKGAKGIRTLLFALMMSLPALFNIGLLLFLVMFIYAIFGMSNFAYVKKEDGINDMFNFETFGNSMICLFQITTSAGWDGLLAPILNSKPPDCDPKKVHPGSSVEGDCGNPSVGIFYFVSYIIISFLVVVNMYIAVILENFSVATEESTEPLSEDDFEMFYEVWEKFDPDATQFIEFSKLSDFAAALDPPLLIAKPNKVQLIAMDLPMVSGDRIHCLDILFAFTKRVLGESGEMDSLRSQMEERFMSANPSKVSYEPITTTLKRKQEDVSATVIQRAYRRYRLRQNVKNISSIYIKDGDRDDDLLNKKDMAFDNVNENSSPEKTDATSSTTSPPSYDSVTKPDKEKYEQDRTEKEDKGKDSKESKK
Procedure: The recording electrode used in the present example is a glass microelectrode, which is prepared as follows: The glass electrode blanks (outer diameter of 1.50 mm, inner diameter of 0.84 mm) are prepared into single-tube glass microelectrodes with tip diameters of 1-2 μm in four steps using the P-1000 Microelectrode Horizontal Puller for subsequent experiments. Be careful not to touch the heated platinum sheet in the center when pulling the electrode, and be careful not to touch the tip of the pulled electrode to prevent the tip from breaking. Since the tip of the glass microelectrode is highly susceptible to dust attraction, it is generally prepared for use now and should not be left overnight.
Glass microelectrodes are used as follows: rinse clean the glass microelectrodes before use; then put all the glass microelectrodes in a large beaker; add anhydrous ethanol so that the glass microelectrodes are completely immersed in anhydrous ethanol; and place the beaker in an ultrasonic cleaner with ultrasonic vibration for 30 min. Subsequently, pour out the anhydrous ethanol; rinse out the glass microelectrode with ultrapure water 3-4 times; use another small beaker to cover the microelectrode so as not to contaminate the electrode with dust; put the glass microelectrode into the oven for drying; and put the glass microelectrode into a clean box for spare use after drying.
In the patch clamp experiments, the measured sodium currents are corrected for leakage currents, and the primary data of the experiments are recorded using Clampfit 10.6, and the data acquisition is performed by the pCLAMP software. Three to five sweeps are selected for analysis, (sweep, which is a term used in patch clamp software and consists of a series of sampling points) in which the current is in a stable state before the addition of the polypeptide. The average value of the peak current is thus calculated as the control current amplitude. Then 3-5 sweeps in which the current is in a stable state after the addition of polypeptide are selected and analyzed, and the average value of the residual peak current is calculated as the residual current amplitude.
The electrical stimulation effect of polypeptides PPN-01 to PPN-16 on Nav1.7 overexpressing HEK293 cells is studied using the glass microelectrodes obtained from the above preparations and the whole-cell patch clamp techniques (n=1). In a voltage-clamp mode, the clamp voltage is kept at −90 mV; a square-wave stimulus depolarized from −90 mV to +40 mV with a duration of 30 ms is applied; the concentration of each dosing (polypeptide) is 300 nM; and validation is repeated for the six polypeptides that show a significant effect (n=2).
In a voltage-clamp mode, the clamp voltage is kept at −90 m V and a square-wave stimulus depolarized from −90 mV to +40 mV with a duration of 30 ms is applied.
2. The electrical stimulation effect of the polypeptide PPN-01 provided in Example 1 on Nav1.4, Nav1.5, Nav1.6, and Nav1.7 overexpressing HEK293 cells is studied using the glass microelectrodes obtained from the above preparations and employing the whole-cell patch clamp techniques (n=5). In a voltage-clamp mode, the clamp voltage is kept at −90 mV; a square-wave stimulus depolarized from −90 mV to +40 mV with a duration of 30 ms is applied; and a concentration of each dosing (polypeptide) is 300 nM.
3. After establishing whole-cell patch clamp configuration using glass microelectrodes filled with internal electrode solution and HEK293 cells overexpressing Nav1.4, Nav1.5, Nav1.6, or Nav1.7, the polypeptides provided in Example 1 are applied separately. In a voltage-clamp mode, the clamp voltage is kept at −90 m V and a square-wave stimulus depolarized from −90 m V to +40 m V with a duration of 30 ms is applied. […]

Nav1.5 = target: T4, Nav1.5 (Homo sapiens, UniProt Q14524); assay: Whole-cell patch clamp on Nav1.5 overexpressing HEK293 cells; conditions: 300 nM; −90 mV to +40 mV, 30 ms; n=5
T4 construct: expressed in transfected cells; host or cells: HEK293
Procedure: as §1, §2

CSCC[C@@H]1NC(=O)CNC(=O)[C@H](CCC(=O)O)NC(=O)[C@@H]2CSSC[C@H](NC(=O)[C@H](Cc3ccc(O)cc3)NC(C)=O)C(=O)N[C@@H](CCC(N)=O)C(=O)N[C@@H](CCCCN)C(=O)N[C@@H](Cc3ccccc3)C(=O)N[C@@H](CC(C)C)C(=O)N[C@@H](C)C(=O)N3CCC[C@H]3C(=O)N[C@H]3CSSC[C@H](NC(=O)[C@H](CCC(=O)O)NC1=O)C(=O)N[C@@H](CCCCN)C(=O)N[C@@H](CC(C)C)C(=O)N[C@@H](Cc1c[nH]c4ccccc14)C(=O)N[C@H](C(=O)N[C@@H](CCCCN)C(=O)N[C@@H](CCCCN)C(=O)N[C@@H](CCCCN)C(=O)N[C@@H](CC(C)C)C(=O)N[C@@H](Cc1c[nH]c4ccccc14)C(N)=O)CSSC[C@H](NC(=O)[C@H](CCCCN)NC(=O)[C@H](CCCNC(=N)N)NC(=O)[C@H](CCC(=O)O)NC(=O)[C@H](CO)NC(=O)[C@H](CC(=O)O)NC3=O)C(=O)N2 [PPN-01] (Ac-YCQKFLAPCDSERKCCEGMECKLWCKKKLW-NH2; disulfide 2-16, 9-21, 15-25)
inhibition effect on Nav1.6 overexpressing HEK293 cells (Nav1.6): no significant inhibition effect | inhibition effect on Nav1.4 overexpressing HEK293 cells (Nav1.4): no significant inhibition effect | inhibition of Nav1.7 overexpressing HEK293 cells (current traces) (Nav1.7 channels; 300 nM polypeptide, clamp −90 mV, depolarized to +40 mV, 30 ms, vs negative control, n=1 (n=2 for six polypeptides)): significant inhibition | inhibition effect on Nav1.7 overexpressing HEK293 cells (Nav1.7 channels; 300 nM, −90 mV to +40 mV, 30 ms, n=5): significant inhibition effect | inhibition at 0.3 µM (Nav1.7 channels; membrane potential +40 mV): 89.6% | inhibition at 0.3 µM (Nav1.7 channels; membrane potential −30 mV): 73.6% | inhibition at 0.3 µM (Nav1.7 channels; membrane potential −40 mV): 43.6% | Hill coefficient (Nav1.7 channels; concentration-response of Nav1.7 peak current inhibition): 1.18 | inhibition effect on Nav1.5 overexpressing HEK293 cells (Nav1.5): no significant inhibition effect
